In ChEMBL document CHEMBL1138099, “Synthesis and structure-activity studies of antibacterial oxazolidinones containing dihydrothiopyran or dihydrothiazine C-rings” (2006):
≈ marks a conversion by molar mass, not a printed value.

How the values were obtained:
Format in all cases: functional
Moraxella catarrhalis = experiment: Antimicrobial activity against Moraxella catarrhalis
Haemophilus influenzae = experiment: Antimicrobial activity against Haemophilus influenzae
Staphylococcus aureus = experiment: Antimicrobial activity against Staphylococcus aureus
Streptococcus pneumoniae = experiment: Antimicrobial activity against Streptococcus pneumoniae
Enterococcus faecium = experiment: Antimicrobial activity against Enterococcus faecium UC12712

| SMILES | MIC (Moraxella catarrhalis) | MIC (Haemophilus influenzae) | MIC (Staphylococcus aureus) | MIC (Streptococcus pneumoniae) | MIC (Enterococcus faecium) |
| --- | --- | --- | --- | --- | --- |
| O=C(NC[C@H]1CN(c2ccc(N3C=CS(=O)(=O)CC3)c(F)c2)C(=O)O1)C(F)F | 4 µg/mL (≈ 9.54 µM) | 4 µg/mL (≈ 9.54 µM) | 4 µg/mL (≈ 9.54 µM) | 0.5 µg/mL (≈ 1.19 µM) | 2 µg/mL (≈ 4.77 µM) |
| O=C1O[C@@H](C/N=C(/S)C(F)F)CN1c1ccc(C2C=CS(=O)(=O)CC2)c(F)c1 (stereo partly drawn) | 2 µg/mL (≈ 4.6 µM) | 8 µg/mL (≈ 18.4 µM) | 2 µg/mL (≈ 4.6 µM) | 0.5 µg/mL (≈ 1.15 µM) | 1 µg/mL (≈ 2.3 µM) |
| O=C1O[C@@H](C/N=C(/S)C(F)F)CN1c1ccc(C2C=CS(=O)(=O)CC2)cc1 (stereo partly drawn) | 4 µg/mL (≈ 9.6 µM) | 8 µg/mL (≈ 19.2 µM) | 2 µg/mL (≈ 4.8 µM) | 0.5 µg/mL (≈ 1.2 µM) | 2 µg/mL (≈ 4.8 µM) |
| CC(=O)NC[C@H]1CN(c2ccc(C3C=CS(=O)(=O)CC3)cc2)C(=O)O1 (stereo partly drawn) | 8 µg/mL (≈ 22 µM) | 8 µg/mL (≈ 22 µM) | 4 µg/mL (≈ 11 µM) | 1 µg/mL (≈ 2.74 µM) | 4 µg/mL (≈ 11 µM) |
| O=C1O[C@@H](C/N=C(/S)C(F)F)CN1c1cc(F)c(C2C=CS(=O)(=O)CC2)c(F)c1 (stereo partly drawn) | 4 µg/mL (≈ 8.84 µM) | 16 µg/mL (≈ 35.4 µM) | 1 µg/mL (≈ 2.21 µM) | 0.5 µg/mL (≈ 1.11 µM) | 2 µg/mL (≈ 4.42 µM) |
| CC(=O)NC[C@H]1CN(c2ccc(N3C=CS(=O)(=O)CC3)c(F)c2)C(=O)O1 | 2 µg/mL (≈ 5.22 µM) | 4 µg/mL (≈ 10.4 µM) | 4 µg/mL (≈ 10.4 µM) | 0.5 µg/mL (≈ 1.3 µM) | 2 µg/mL (≈ 5.22 µM) |
| O=C(NC[C@H]1CN(c2cc(F)c(C3C=CS(=O)(=O)CC3)c(F)c2)C(=O)O1)C(Cl)Cl (stereo partly drawn) | 4 µg/mL (≈ 8.52 µM) | 8 µg/mL (≈ 17 µM) | 2 µg/mL (≈ 4.26 µM) | 0.5 µg/mL (≈ 1.07 µM) | 2 µg/mL (≈ 4.26 µM) |
| O=C(NC[C@H]1CN(c2cc(F)c(N3C=CS(=O)(=O)CC3)c(F)c2)C(=O)O1)C(F)F | 4 µg/mL (≈ 9.15 µM) | 4 µg/mL (≈ 9.15 µM) | 4 µg/mL (≈ 9.15 µM) | 0.5 µg/mL (≈ 1.14 µM) | 1 µg/mL (≈ 2.29 µM) |
| CC(=O)NC[C@H]1CN(c2ccc(N3CCOCC3)c(F)c2)C(=O)O1 [LINEZOLID] | 8 µg/mL (≈ 23.7 µM) | 16 µg/mL (≈ 47.4 µM) | – | – | 4 µg/mL (≈ 11.9 µM) |
| O=C(NC[C@H]1CN(c2ccc(C3C=CS(=O)(=O)CC3)cc2)C(=O)O1)C(F)F (stereo partly drawn) | 4 µg/mL (≈ 9.99 µM) | 8 µg/mL (≈ 20 µM) | 4 µg/mL (≈ 9.99 µM) | 1 µg/mL (≈ 2.5 µM) | 4 µg/mL (≈ 9.99 µM) |

The remaining molecules from weak to strong by MIC (Moraxella catarrhalis), led by results:

| MIC (Moraxella catarrhalis) | MIC (Haemophilus influenzae) | MIC (Staphylococcus aureus) | MIC (Streptococcus pneumoniae) | MIC (Enterococcus faecium) | SMILES |
| --- | --- | --- | --- | --- | --- |
| 8 µg/mL (≈ 18.3 µM) | 8 µg/mL (≈ 18.3 µM) | 2 µg/mL (≈ 4.58 µM) | 1 µg/mL (≈ 2.29 µM) | 2 µg/mL (≈ 4.58 µM) | O=C(NC[C@H]1CN(c2cc(F)c(C3C=CS(=O)(=O)CC3)c(F)c2)C(=O)O1)C(F)F (stereo partly drawn) |
| 8 µg/mL (≈ 20 µM) | 8 µg/mL (≈ 20 µM) | 4 µg/mL (≈ 9.99 µM) | 1 µg/mL (≈ 2.5 µM) | 2 µg/mL (≈ 4.99 µM) | CC(=O)NC[C@H]1CN(c2cc(F)c(C3C=CS(=O)(=O)CC3)c(F)c2)C(=O)O1 (stereo partly drawn) |
| 4 µg/mL (≈ 9.97 µM) | 8 µg/mL (≈ 19.9 µM) | 4 µg/mL (≈ 9.97 µM) | 1 µg/mL (≈ 2.49 µM) | 2 µg/mL (≈ 4.98 µM) | O=C(NC[C@H]1CN(c2ccc(N3C=CS(=O)(=O)CC3)cc2)C(=O)O1)C(F)F |
| 4 µg/mL (≈ 9.92 µM) | 4 µg/mL (≈ 9.92 µM) | 2 µg/mL (≈ 4.96 µM) | 1 µg/mL (≈ 2.48 µM) | 2 µg/mL (≈ 4.96 µM) | CC(=O)NC[C@H]1CN(c2cc(F)c(N3CCS(=O)(=O)CC3)c(F)c2)C(=O)O1 |
| 4 µg/mL (≈ 9.56 µM) | 4 µg/mL (≈ 9.56 µM) | 2 µg/mL (≈ 4.78 µM) | 1 µg/mL (≈ 2.39 µM) | 2 µg/mL (≈ 4.78 µM) | O=C(NC[C@H]1CN(c2ccc(C3C=CS(=O)(=O)CC3)c(F)c2)C(=O)O1)C(F)F (stereo partly drawn) |
| 4 µg/mL (≈ 9.58 µM) | 4 µg/mL (≈ 9.58 µM) | 2 µg/mL (≈ 4.79 µM) | 0.5 µg/mL (≈ 1.2 µM) | 1 µg/mL (≈ 2.4 µM) | O=C1O[C@@H](C/N=C(/S)C(F)F)CN1c1ccc(N2C=CS(=O)(=O)CC2)cc1 |
| 4 µg/mL (≈ 9.23 µM) | 4 µg/mL (≈ 9.23 µM) | 2 µg/mL (≈ 4.62 µM) | 0.5 µg/mL (≈ 1.15 µM) | 2 µg/mL (≈ 4.62 µM) | O=C(NC[C@H]1CN(c2ccc(C3C=CS(=O)(=O)CC3)cc2)C(=O)O1)C(Cl)Cl (stereo partly drawn) |
| 4 µg/mL (≈ 8.51 µM) | 4 µg/mL (≈ 8.51 µM) | 4 µg/mL (≈ 8.51 µM) | 0.5 µg/mL (≈ 1.06 µM) | 1 µg/mL (≈ 2.13 µM) | O=C(NC[C@H]1CN(c2cc(F)c(N3C=CS(=O)(=O)CC3)c(F)c2)C(=O)O1)C(Cl)Cl |
| 4 µg/mL (≈ 9.97 µM) | 8 µg/mL (≈ 19.9 µM) | 2 µg/mL (≈ 4.98 µM) | 0.5 µg/mL (≈ 1.25 µM) | 1 µg/mL (≈ 2.49 µM) | CC(=O)NC[C@H]1CN(c2cc(F)c(N3C=CS(=O)(=O)CC3)c(F)c2)C(=O)O1 |
| 4 µg/mL (≈ 9.19 µM) | 4 µg/mL (≈ 9.19 µM) | 1 µg/mL (≈ 2.3 µM) | 0.5 µg/mL (≈ 1.15 µM) | 1 µg/mL (≈ 2.3 µM) | O=C1O[C@@H](C/N=C(/S)C(F)F)CN1c1ccc(N2C=CS(=O)(=O)CC2)c(F)c1 |
| 2 µg/mL (≈ 4.42 µM) | 2 µg/mL (≈ 4.42 µM) | 2 µg/mL (≈ 4.42 µM) | 0.5 µg/mL (≈ 1.11 µM) | 1 µg/mL (≈ 2.21 µM) | O=C(NC[C@H]1CN(c2ccc(N3C=CS(=O)(=O)CC3)c(F)c2)C(=O)O1)C(Cl)Cl |
| 2 µg/mL (≈ 5.23 µM) | 8 µg/mL (≈ 20.9 µM) | 4 µg/mL (≈ 10.5 µM) | 1 µg/mL (≈ 2.61 µM) | 2 µg/mL (≈ 5.23 µM) | CC(=O)NC[C@H]1CN(c2ccc(C3C=CS(=O)(=O)CC3)c(F)c2)C(=O)O1 (stereo partly drawn) |
| 2 µg/mL (≈ 5.2 µM) | 4 µg/mL (≈ 10.4 µM) | 2 µg/mL (≈ 5.2 µM) | 0.5 µg/mL (≈ 1.3 µM) | 2 µg/mL (≈ 5.2 µM) | CC(=O)NC[C@H]1CN(c2ccc(C3CCS(=O)(=O)CC3)c(F)c2)C(=O)O1 |
| 2 µg/mL (≈ 4.61 µM) | 2 µg/mL (≈ 4.61 µM) | 4 µg/mL (≈ 9.21 µM) | 0.5 µg/mL (≈ 1.15 µM) | 2 µg/mL (≈ 4.61 µM) | O=C(NC[C@H]1CN(c2ccc(N3C=CS(=O)(=O)CC3)cc2)C(=O)O1)C(Cl)Cl |
| 2 µg/mL (≈ 4.41 µM) | 4 µg/mL (≈ 8.82 µM) | 1 µg/mL (≈ 2.21 µM) | 0.25 µg/mL (≈ 0.551 µM) | 0.25 µg/mL (≈ 0.551 µM) | O=C1O[C@@H](C/N=C(/S)C(F)F)CN1c1cc(F)c(N2C=CS(=O)(=O)CC2)c(F)c1 |
| 2 µg/mL (≈ 4.43 µM) | 4 µg/mL (≈ 8.86 µM) | 2 µg/mL (≈ 4.43 µM) | 0.5 µg/mL (≈ 1.11 µM) | 2 µg/mL (≈ 4.43 µM) | O=C(NC[C@H]1CN(c2ccc(C3C=CS(=O)(=O)CC3)c(F)c2)C(=O)O1)C(Cl)Cl (stereo partly drawn) |
